By pEC50 is commonly meant −log10 of the EC50, conventionally taken in molar units.

Molecules are shown by their SMILES. pEC50: −log10 of the molar value.

This note sets out measurements from ChEMBL document CHEMBL1144313, “Synthesis of ring-substituted 4-aminoquinolines and evaluation of their antimalarial activities” (Bioorg Med Chem Lett, 2005).

Format in all cases: functional, organism-based
In experiment [1] the test system is Plasmodium falciparum. The experiment can be described thus: Effective concentration for Plasmodium falciparum 3D7.
The test system of experiment [2] is Plasmodium falciparum. As to the kind of experiment: Effective concentration for Plasmodium falciparum W2.
Experiment [3] relates to Plasmodium falciparum. As to the kind of experiment: Effective concentration against Plasmodium falciparum W2.

Take `CCN(CC)CCCNc1ccnc2cc(Cl)ccc12`: the figures for the pEC50 in the experiment with Plasmodium falciparum [1] (Plasmodium falciparum) and with Plasmodium falciparum [2] were 8.70 and 7.64, respectively.
On the same counts, the results for `CCN(CC)CCCNc1ccnc2cc(C(F)(F)F)ccc12` are 7.48 and 7.21.
On the same counts, the results for `CCN(CC)CCCC(C)Nc1ccnc2cc(Cl)c(C)cc12` (stereo unspecified) are 7.49 and 6.57.
On to `CCN(CC)CCCNc1ccnc2cc(Oc3ccccc3)ccc12`, for which the pEC50 in the experiment on Plasmodium falciparum [1] (Plasmodium falciparum) was 7.47; with Plasmodium falciparum [2], 7.15.
For `CCN(CC)CCCNc1ccnc2ccc(OC(F)(F)F)cc12` the same measures were 7.09 and 6.99.
On the same counts, the results for `CCN(CC)CCCC(C)Nc1ccnc2ccc(C(F)(F)F)cc12` (stereo unspecified) are 7.29 and 6.54.
On the same counts, the results for `CCN(CC)CCCNc1ccnc2ccc(C(F)(F)F)cc12` are 7.05 and 6.90.
Regarding `CCN(CC)CCCNc1ccnc2cc(Cl)c(C)cc12`, the pEC50 in the experiment with Plasmodium falciparum [1] (Plasmodium falciparum) was 8.05; with Plasmodium falciparum [2] it was 7.30.
As for `CCN(CC)CCCC(C)Nc1ccnc2ccc(OC(F)(F)F)cc12` (stereo unspecified), the pEC50 with Plasmodium falciparum [1] (Plasmodium falciparum) is 7.21.
On to `CCN(CC)CCCC(C)Nc1c2ccc(Cl)cc2nc2ccc(OC)cc12` (stereo in doubt; form 1) [QUINACRINE], for which the pEC50 was 8.30 with Plasmodium falciparum [1] (Plasmodium falciparum) and 8.10 in the experiment with Plasmodium falciparum [3].
As to `CCN(CC)CCCC(C)Nc1c2ccc(Cl)cc2nc2ccc(OC)cc12` (stereo in doubt; form 2) [QUINACRINE], the values for the pEC50 in the experiment with Plasmodium falciparum [1] and with Plasmodium falciparum [3] were 8.10 and 7.49, respectively.
